In ChEMBL document CHEMBL1151070 (Bioorg Med Chem Lett, 1995):

What was measured:
[1] = target: T1, Protein kinase C epsilon type (Homo sapiens, UniProt Q02156); test: Inhibition of human Protein kinase C epsilon
T1 sequence (Q02156 whole entry): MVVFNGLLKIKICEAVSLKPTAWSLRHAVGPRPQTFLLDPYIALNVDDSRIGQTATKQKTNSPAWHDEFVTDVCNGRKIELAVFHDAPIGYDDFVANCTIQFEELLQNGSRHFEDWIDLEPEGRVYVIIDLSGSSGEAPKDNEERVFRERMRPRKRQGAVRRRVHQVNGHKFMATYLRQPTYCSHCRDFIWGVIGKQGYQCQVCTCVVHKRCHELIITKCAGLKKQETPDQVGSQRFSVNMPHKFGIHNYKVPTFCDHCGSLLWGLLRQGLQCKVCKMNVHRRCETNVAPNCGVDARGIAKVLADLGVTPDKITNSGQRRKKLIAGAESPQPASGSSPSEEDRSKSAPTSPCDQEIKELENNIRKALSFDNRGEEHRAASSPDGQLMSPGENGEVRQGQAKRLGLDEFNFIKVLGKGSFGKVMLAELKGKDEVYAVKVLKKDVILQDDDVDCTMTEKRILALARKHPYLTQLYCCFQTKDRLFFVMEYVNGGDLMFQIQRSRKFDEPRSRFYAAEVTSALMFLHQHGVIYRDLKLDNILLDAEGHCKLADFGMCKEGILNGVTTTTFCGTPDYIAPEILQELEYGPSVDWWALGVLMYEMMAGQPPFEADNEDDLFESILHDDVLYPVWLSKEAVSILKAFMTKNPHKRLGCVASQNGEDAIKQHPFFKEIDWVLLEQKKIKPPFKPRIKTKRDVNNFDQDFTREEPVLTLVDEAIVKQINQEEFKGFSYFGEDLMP

[2] = target: Protein kinase C gamma type (Homo sapiens, UniProt P05129); test: Inhibition of human Protein kinase C gamma
[3] = target: Protein kinase C alpha type (Homo sapiens, UniProt P17252); test: Inhibition of human Protein kinase C alpha
[4] = target: Protein kinase C delta type (Homo sapiens, UniProt Q05655); test: Inhibition of human Protein kinase C delta
[5] = target: Protein kinase C eta type (Homo sapiens, UniProt P24723); test: Inhibition of human Protein Kinase C eta
[6] = target: T2, Protein kinase C beta type (Homo sapiens, UniProt P05771); test: Inhibition of human Protein kinase C beta 1
[7] = target: T2, Protein kinase C beta type; test: Inhibition of human Protein kinase C beta 2
[8] = target: T3, Protein kinase C zeta type (Homo sapiens, UniProt Q05513); test: Inhibition of Protein kinase C zeta
T3 sequence (Q05513 whole entry): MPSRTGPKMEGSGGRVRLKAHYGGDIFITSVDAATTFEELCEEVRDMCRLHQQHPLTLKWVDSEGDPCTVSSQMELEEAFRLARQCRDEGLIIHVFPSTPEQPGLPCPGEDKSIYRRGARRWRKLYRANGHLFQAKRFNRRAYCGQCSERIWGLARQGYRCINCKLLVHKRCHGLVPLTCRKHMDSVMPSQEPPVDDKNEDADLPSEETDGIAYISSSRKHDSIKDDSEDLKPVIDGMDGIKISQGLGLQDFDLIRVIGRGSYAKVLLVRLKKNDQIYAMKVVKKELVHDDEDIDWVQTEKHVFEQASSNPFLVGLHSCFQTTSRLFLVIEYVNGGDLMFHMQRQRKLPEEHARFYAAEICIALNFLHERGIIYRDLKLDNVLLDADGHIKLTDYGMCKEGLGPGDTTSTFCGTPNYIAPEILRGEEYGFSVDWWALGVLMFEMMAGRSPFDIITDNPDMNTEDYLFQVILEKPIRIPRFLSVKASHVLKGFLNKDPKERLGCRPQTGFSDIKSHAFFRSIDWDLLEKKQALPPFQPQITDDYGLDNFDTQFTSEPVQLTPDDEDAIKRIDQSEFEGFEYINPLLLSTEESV

Sequence of Protein kinase C delta type (Q05655 whole entry): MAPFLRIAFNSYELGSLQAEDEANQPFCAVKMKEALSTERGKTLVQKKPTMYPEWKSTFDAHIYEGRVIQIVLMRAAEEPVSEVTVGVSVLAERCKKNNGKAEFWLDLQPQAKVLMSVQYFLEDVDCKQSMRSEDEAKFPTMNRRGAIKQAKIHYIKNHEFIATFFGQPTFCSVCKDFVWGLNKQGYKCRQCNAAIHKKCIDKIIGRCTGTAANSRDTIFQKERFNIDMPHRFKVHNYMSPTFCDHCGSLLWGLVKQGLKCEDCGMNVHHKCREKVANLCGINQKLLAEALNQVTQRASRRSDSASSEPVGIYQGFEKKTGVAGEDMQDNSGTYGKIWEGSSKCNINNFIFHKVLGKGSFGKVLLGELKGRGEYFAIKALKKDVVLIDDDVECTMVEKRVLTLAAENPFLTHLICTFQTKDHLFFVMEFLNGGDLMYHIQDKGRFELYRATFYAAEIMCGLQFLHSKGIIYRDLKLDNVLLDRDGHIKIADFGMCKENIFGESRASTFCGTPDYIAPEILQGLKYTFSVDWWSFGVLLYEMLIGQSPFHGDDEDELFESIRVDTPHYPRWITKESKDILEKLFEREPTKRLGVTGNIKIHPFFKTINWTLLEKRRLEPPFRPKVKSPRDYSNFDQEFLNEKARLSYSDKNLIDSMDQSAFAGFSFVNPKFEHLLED
Sequence of Protein kinase C eta type (P24723 whole entry): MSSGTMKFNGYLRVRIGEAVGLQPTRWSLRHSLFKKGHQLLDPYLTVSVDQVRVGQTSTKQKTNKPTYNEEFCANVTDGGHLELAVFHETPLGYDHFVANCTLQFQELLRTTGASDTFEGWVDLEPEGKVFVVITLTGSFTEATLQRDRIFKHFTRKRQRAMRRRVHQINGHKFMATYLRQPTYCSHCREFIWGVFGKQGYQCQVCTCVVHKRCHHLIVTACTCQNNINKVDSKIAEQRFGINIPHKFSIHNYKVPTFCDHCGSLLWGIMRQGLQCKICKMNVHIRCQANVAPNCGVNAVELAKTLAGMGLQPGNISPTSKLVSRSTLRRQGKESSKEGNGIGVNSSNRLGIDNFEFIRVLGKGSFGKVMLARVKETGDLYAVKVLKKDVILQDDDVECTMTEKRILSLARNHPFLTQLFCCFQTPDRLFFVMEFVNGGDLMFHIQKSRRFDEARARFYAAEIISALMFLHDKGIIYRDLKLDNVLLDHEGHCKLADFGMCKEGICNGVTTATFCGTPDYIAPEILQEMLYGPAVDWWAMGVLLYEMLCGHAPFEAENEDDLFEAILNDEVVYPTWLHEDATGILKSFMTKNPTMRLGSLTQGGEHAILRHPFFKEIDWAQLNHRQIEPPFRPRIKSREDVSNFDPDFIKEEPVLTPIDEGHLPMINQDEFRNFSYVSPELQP
T2 sequence (P05771 whole entry): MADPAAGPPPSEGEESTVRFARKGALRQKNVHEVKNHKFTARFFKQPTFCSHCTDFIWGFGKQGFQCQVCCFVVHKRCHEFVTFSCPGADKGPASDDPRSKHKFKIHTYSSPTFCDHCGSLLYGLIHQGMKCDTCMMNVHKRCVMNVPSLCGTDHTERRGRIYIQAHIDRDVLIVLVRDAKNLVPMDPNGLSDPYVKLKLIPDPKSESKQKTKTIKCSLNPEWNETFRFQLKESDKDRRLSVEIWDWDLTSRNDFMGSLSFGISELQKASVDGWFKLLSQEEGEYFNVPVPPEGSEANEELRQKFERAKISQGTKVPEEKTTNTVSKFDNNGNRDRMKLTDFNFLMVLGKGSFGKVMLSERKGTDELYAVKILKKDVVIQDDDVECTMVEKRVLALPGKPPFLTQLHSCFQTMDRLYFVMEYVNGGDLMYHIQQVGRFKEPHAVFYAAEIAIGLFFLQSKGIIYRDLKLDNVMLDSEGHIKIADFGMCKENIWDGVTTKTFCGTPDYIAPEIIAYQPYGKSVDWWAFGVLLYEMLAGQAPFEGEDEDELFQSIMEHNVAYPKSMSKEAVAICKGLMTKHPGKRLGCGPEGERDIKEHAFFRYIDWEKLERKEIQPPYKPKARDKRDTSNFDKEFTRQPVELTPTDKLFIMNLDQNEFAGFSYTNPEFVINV

SMILES | IC50 [1] | IC50 [2] | IC50 [3] | IC50 [4] | IC50 [5] | IC50 [6] | IC50 [7] | IC50 [8]
O=C(N[C@H]1C[C@H](CO)C[C@H]1OC(=O)c1cc(O)c(C(=O)c2c(O)cccc2C(=O)O)c(O)c1)c1ccc(O)cc1 | 160 nM | 5 nM | 10 nM | 4 nM | 2 nM | 4 nM | 3 nM | –
N[C@@H]1C[C@H](NC(=O)c2ccc(O)cc2)[C@H](OC(=O)c2cc(O)c(C(=O)c3c(O)cccc3C(=O)O)c(O)c2)C1 | 10 nM | 5 nM | 20 nM | 5 nM | 2 nM | 4 nM | 2 nM | 1200 nM
NC[C@H]1C[C@H](NC(=O)c2ccc(O)cc2)[C@H](OC(=O)c2cc(O)c(C(=O)c3c(O)cccc3C(=O)O)c(O)c2)C1 | 30 nM | 5 nM | 20 nM | 6 nM | 3 nM | 4 nM | 4 nM | 2800 nM
O=C(N[C@H]1C[C@@H](CO)C[C@H]1OC(=O)c1cc(O)c(C(=O)c2c(O)cccc2C(=O)O)c(O)c1)c1ccc(O)cc1 | 260 nM | 45 nM | 80 nM | 20 nM | 20 nM | 60 nM | 20 nM | –
NC[C@@H]1C[C@H](NC(=O)c2ccc(O)cc2)[C@H](OC(=O)c2cc(O)c(C(=O)c3c(O)cccc3C(=O)O)c(O)c2)C1 | 30 nM | 10 nM | 20 nM | 20 nM | 3 nM | 5 nM | 5 nM | 3100 nM
O=C(N[C@H]1C[C@H](O)C[C@H]1OC(=O)c1cc(O)c(C(=O)c2c(O)cccc2C(=O)O)c(O)c1)c1ccc(O)cc1 | 150 nM | 30 nM | 50 nM | 6 nM | 4 nM | 20 nM | 20 nM | –
O=C(N[C@@H]1CNCCC[C@H]1OC(=O)c1cc(O)c(C(=O)c2c(O)cccc2C(=O)O)c(O)c1)c1ccc(O)cc1 (racemic) [BALANOL] | – | – | 70 nM | 30 nM | – | – | 40 nM | –
O=C(N[C@H]1C[C@@H](O)C[C@H]1OC(=O)c1cc(O)c(C(=O)c2c(O)cccc2C(=O)O)c(O)c1)c1ccc(O)cc1.O=C(N[C@H]1C[C@H](O)C[C@H]1OC(=O)c1cc(O)c(C(=O)c2c(O)cccc2C(=O)O)c(O)c1)c1ccc(O)cc1 (single isomer, unassigned) | 100 nM | 20 nM | 40 nM | 5 nM | 3 nM | 20 nM | 10 nM | –
